The target in data set [1] is T1, V3 receptor (Rattus norvegicus, UniProt P48974).
T1 construct: Anterior pituitary corticotrophs were prepared from adult female Sprague-Dawley rats; from tissue; host or cells: primary anterior pituitary corticotrophs from adult female Sprague-Dawley rats
T1 sequence (P48974 1-425): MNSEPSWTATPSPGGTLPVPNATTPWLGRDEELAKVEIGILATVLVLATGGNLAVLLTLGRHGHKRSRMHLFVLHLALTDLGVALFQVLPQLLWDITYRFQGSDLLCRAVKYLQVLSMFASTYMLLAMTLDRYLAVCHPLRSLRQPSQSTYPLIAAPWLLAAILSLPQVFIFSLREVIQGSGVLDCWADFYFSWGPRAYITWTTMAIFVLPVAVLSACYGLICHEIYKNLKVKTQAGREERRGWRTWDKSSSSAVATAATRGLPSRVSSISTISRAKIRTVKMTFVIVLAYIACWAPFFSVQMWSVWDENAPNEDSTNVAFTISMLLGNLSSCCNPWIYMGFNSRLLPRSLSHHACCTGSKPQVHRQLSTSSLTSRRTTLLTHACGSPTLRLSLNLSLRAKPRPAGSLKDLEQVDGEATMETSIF
The data set can be described thus: Block of AVP-induced ACTH release from rat anterior pituitary corticotrophs. It counts as cell-based. The note with it: inhibition of ACTH release induced by 3×10^-9 mol.L^-1 AVP, ELISA; read-out: V3 receptor antagonism in isolated rat anterior pituitary cells. As for the experimental part:
The ability of compounds of the invention to act as V3 antagonists in a physiologically relevant system was determined by measuring their ability to block the release of adrenocorticotropic hormone (ACTH) from anterior pituitary corticotrophs in response to treatment with arginine vasopressin (AVP).
Anterior pituitary corticotrophs were prepared from adult female Sprague-Dawley rats and seeded into 48 well plates. The cells were cultured for 4 days prior to exposure to compound. Test compounds were prepared at […] in 100% DMSO. Cells were exposed to a dose response of test compounds for 20 minutes (10^−8 mol.L^−1-10^−5 mol.L^−1). The final concentration of DMSO in the assay was kept constant at 0.3%. The cells were then exposed to 3×10^−9 mol.L^−1 AVP for 120 minutes. Supernatants were harvested and stored at −20° C. ACTH levels were subsequently measured by ELISA following the manufacturer's instructions (Immunodiagnostic systems, UK (Cat No. DX-SDX018)). Each treatment was carried out in quadruplicate and a mean value obtained for the amount of ACTH released. The degree of antagonism was then calculated as a percentage of the amount of ACTH released by agonist alone after adjustment for basal levels of ACTH. A pIC50 was calculated by fitting a Sigmoidal dose response (variable slope) curve with a non-linear (fit) to the data using the software package GraphPad prism. […]

As for `COc1cccc(-c2nc3ccc(OCCCN4CCCCC4)cc3c(=O)n2CC(=O)NC(C)C)c1` [EXAMPLE 2h, N-Isopropyl-2-[2-(3-methoxyphenyl)-4-oxo-6-(3-piperidin-1-ylpropoxy)-4H-quinazolin-3-yl]acetamide], the IC50 in data set [1] lay in the range of 10 to 100 nM.
As to `COc1cccc(-c2nc3ccc(-c4cccc(CN(C)C)c4)cc3c(=O)n2CC(=O)NC(C)C)c1` [EXAMPLE 7k, 2-[6-(3-Dimethylaminomethylphenyl)-2-(3-methoxyphenyl)-4-oxo-4H-quinazolin-3-yl]-N-isopropylacetamide], the IC50 in data set [1] was in the range of 100 to 1000 nM.
Take `CCN(CC)C[C@H](C)COc1ccc2nc(-c3cccc(OC)c3)n(CC(=O)NC(C)C)c(=O)c2c1` [Example 4a, (S)-(+)-2-[6-(3-Diethylamino-2-methylpropoxy)-2-(3-methoxyphenyl)-4-oxo-4H-quinazolin-3-yl]-N-isopropylacetamide]: the melting point is 161 to 163 °C.

One may read the melting point as the temperature of the solid-liquid transition.

The values are drawn from patent US7807686B2, “2-(4-oxo-4H-quinazolin-3-yl)acetamides and their use as vasopressin V3 antagonists” (N.V. Organon, priority 2005, dated 2010).
